One compound from patent US5169850A, “N-(dialkylamino)methylene)-substituted pyrazolo(1,5-a)-pyrimidine-3-carboxamides and N-(dialkylamino)methylene-substituted-4,5-dihydropyrazolo-(1,5-a)-pyrimi dine-3-carboxamides” (American Cyanamid Company, priority 1991, dated 1992) can be followed below.

A short description of assay [1]: Mean arterial blood pressure in spontaneously hypertensive rats. The class given is in vivo, spontaneously hypertensive rats of the Okamoto strain. The note with it: gavage, 100 mg/kg or less, two doses 24 h apart, measured at 28 h; average MABP of rats 160±1.5. How it is done:
Certain of the novel compounds of the present invention are active hypotensive agents at non-toxic doses when administered to mammals. These compounds were tested for hypotensive activity by the method of P. S. Chan and D. W. Poorvin, Clinical and Experimental Hypertension, 1 (6), […] (1979). Male, 16 week old spontaneously hypertensive rats of the Okamoto strain having an average mean arterial blood pressure of 160±1.5 mm of mercury are used in the test. One to three rats are used per test compound. A rat is dosed by gavage with a test compound, suspended in 2 percent pre-boiled starch at a concentration of50 mg/ml, at a dose of 100 mg/kg of body weight or less, with 0.9 percent sodium chloride loading at a dose of 25 ml/kg of body weight. A second identical dose of the test compound, without sodium chloride loading is given 24 hours later. At 28 hours after the initial dose the mean arterial blood pressure is measured by the method of Chan and Poorvin vide supra. The procedure is repeated in a second and third rat when necessary.

A short description of another assay: Hypoxic Survival Test. The following applies: 30 min before hypoxia, survival after 5 min. Type of assay: in vivo, Royal Hart mice. How it is done: A useful in vivo test that measures how effectively central nervous system-acting drugs enhance survival in an hypoxic environment, presumably by improving the ratio of energy supply to demand is known as the Hypoxic Survival Test. […] Drugs are tested by intraperitoneally injecting groups of mice 30 minutes prior to placing them in hypoxic mixture and measuring survival. The rationale of this test is that drugs which enhance survival under hypoxic conditions without concomitant, depression or sedative side effects, may do so by enhancing energy metabolism, or by preserving normal brain function under conditions of reduced energy metabolism. Given the dependence of the brain on a constant supply of energy, drugs which have this property may have many far-reaching therapeutic indications, including recovery from stroke and closed head injury, as well as reducing the deleterious effects of the aging central nervous system. […]
A separate group of 20 mice is injected intraperitoneally with saline solution (0.01 cc/g of body weight) and processed as described above.
Still another group of 20 mice is injected intraperitoneally with 0.125 mg/kg of physostigmine and processed as described above.

Assay [2] is described as follows: Conflict procedure (non-conditioned passive avoidance). The class given is in vivo, Wistar strain rats. The following applies: 25 mg/kg oral, 60 min before test. How it is done:
Another test used to assess anti-anxiety effects is a non-conditioned passive avoidance procedure described by J. R. Vogel, G. Beer and D. E. Clody, "A Simple and Reliable Conflict Procedure for Testing Antianxiety Agents", Psychopharmacologia, 21, 1-7 (1971). A conflict situation was induced in rats by a modification of this method.
Groups of 8 naive, Wistar strain rats, weighing 200-240 g each, were deprived of water for 48 hours. The test compounds were administered in single or graded, oral doses, suspended in 2 percent starch with […] polyethylene glycol in distilled water and one drop of Polysorbate 80. Control animals received the vehicle alone. At 60 minutes each rat was placed in an individual clear plastic chamber. Tap water was available ad libitum from a nipple located in a black box off the main chamber. A 0.7 milliampere AC shocking current was established between the stainless steel grid floor and the tap. After 20 licks of non-shocked drinking, a 2 second shocking current was administered to the rat. This ratio of 20 licks of non-shocked drinking followed by a 2 second shock was continued for a total of 3 minutes. The number of shocks taken by each rat during the 3 minute interval was recorded and compared to a control group. […]

The nature of assay [3]: Passive-Avoidance Anoxic-Induced-Amnesia Test. Type of assay: in vivo, Swiss-Webster mice. The following applies: vs saline control, active if 30 percent. The source says: Another in vivo test associated with decreased neural function in mammals is the Passive-Avoidance Anoxic-Induced-Amnesia Test. This test is used to determine the attenuation of anoxic induced amnesia in mice treated with drug, as compared to saline treated control animals with no drug.
A shock-motivated, single trial, step-through passive avoidance procedure is used. Groups of 25 Swiss-Webster, middle aged mice (9 months of age) are placed singly in the front chamber of a 2-chamber box and are allowed to voluntarily cross into the rear chamber. As soon as the mouse enters the rear chamber, a door automatically traps the animal and a mild electric shock (0.4 mA for 4 seconds) is delivered to its feet. Following the foot shock, the mice are initially placed in an anoxic environment (0 percent oxygen) for 12 seconds, which quickly induces unconsciousness. They are then placed in a hypoxic environment (15 percent oxygen) for four minutes which prolongs the oxygen deprived state, maintaining unconsciousness. All testing is performed 24 hours later, and in all cases the mice appear fully recovered from the previous anoxic/hypoxic treatment. All test compounds are administered intraperitoneally at a dose of 5-200 mg/kg, 30 minutes prior to training and testing. Control animals are injected intraperitoneally only with saline at 0.01 cc/g of body weight.
The latency to enter the rear chamber is recorded for both training and testing. Presumably, the more the animal remembers being shocked, the greater it will inhibit going into the rear chamber and the higher will be its latency to re-enter. An improvement of 30 percent over saline control scores is considered active.

For the compound `CN(C)C=NC(=O)c1cnn2c1NCC=C2c1cccc(C(F)(F)F)c1` [N-((Dimethylamino)methylene)-4,5-dihydro-7-(3-(trifluoromethyl)phenylpyrazolo(1,5-a)-pyrimidine-3-carboxamide], the “MABP/mmHg (no. of rat)” value in assay [1] was found to be 131 mmHg. Besides, the “% Survivors” value in “Hypoxic Survival Test” (50 mg/kg i.p.) turned out to be 75%; in the assay “Hypoxic Survival Test” (100 mg/kg i.p.), 57%. Further, the “Result (no. of shocks per 3 min.)” value in assay [2] was 22.9 no. of shocks per 3 min. In addition, the “% Improvement” value in assay [3] (25 mg/kg i.p.) was 49%; in assay [3] (50 mg/kg i.p.), 57%.
